pIC50: −log10 of the molar value.
The compounds below were run on Mycobacterium tuberculosis (assay: microbe, parasite or virus in culture). Conditions: variant bovis BCG, 504 h.
In the case of `Nc1ncnc2c1c(-c1ccccc1)cn2[C@@H]1O[C@H](CO)[C@@H](O)[C@H]1O`, the pIC50 was 5.87.
`COc1ccc(-c2cn([C@@H]3O[C@H](CO)[C@@H](O)[C@H]3O)c3ncnc(N)c23)cc1` showed a pIC50 of 5.68.
`CSc1ccc(-c2cn([C@@H]3O[C@H](CO)[C@@H](O)[C@H]3O)c3ncnc(N)c23)cc1` was tested, and the pIC50 was 6.44.
For `Nc1ncnc2c1c(-c1cccc3ccccc13)cn2[C@@H]1O[C@H](CO)[C@@H](O)[C@H]1O`, the pIC50 was 5.73.
Work on `Nc1ncnc2c1c(-c1ccc3ccccc3c1)cn2[C@@H]1O[C@H](CO)[C@@H](O)[C@H]1O` yielded a pIC50 of 6.41.
`Nc1ncnc2c1c(-c1ccoc1)cn2[C@@H]1O[C@H](CO)[C@@H](O)[C@H]1O` was tested, and the pIC50 was 5.08.
For `Nc1ncnc2c1c(-c1ccsc1)cn2[C@@H]1O[C@H](CO)[C@@H](O)[C@H]1O`, the pIC50 was 5.41.
For `Nc1ncnc2c1c(-c1cc3ccccc3o1)cn2[C@@H]1O[C@H](CO)[C@@H](O)[C@H]1O`, the pIC50 was 5.64.
Work on `Nc1ncnc2c1c(-c1ccc[nH]1)cn2[C@@H]1O[C@H](CO)[C@@H](O)[C@H]1O` yielded a pIC50 of 5.14.
`Nc1ncnc2c1c(-c1cc[nH]c1)cn2[C@@H]1O[C@H](CO)[C@@H](O)[C@H]1O` was tested, and the pIC50 was 5.95.
In the case of `Nc1ncnc2c1c(-c1cn[nH]c1)cn2[C@@H]1O[C@H](CO)[C@@H](O)[C@H]1O`, the pIC50 was 5.51.
`Nc1ncnc2c1c(-c1cc[nH]n1)cn2[C@@H]1O[C@H](CO)[C@@H](O)[C@H]1O` showed a pIC50 of 4.32.
`C#Cc1cn([C@@H]2O[C@H](CO)[C@@H](O)[C@H]2O)c2ncnc(N)c12` was tested, and the pIC50 was 6.89.
For `Nc1ncnc2c1c(-c1c[nH]nn1)cn2[C@@H]1O[C@H](CO)[C@@H](O)[C@H]1O`, the pIC50 was 4.16.
`Nc1ncnc2c1c(-c1nccs1)cn2[C@@H]1O[C@H](CO)[C@@H](O)[C@H]1O` gave a pIC50 of 5.60.
`Nc1ncnc2c1c(-c1c[nH]cn1)cn2[C@@H]1O[C@H](CO)[C@@H](O)[C@H]1O` was tested, and the pIC50 was < 4.00.
In the case of `Nc1ncnc2c1c(-c1ncc[nH]1)cn2[C@@H]1O[C@H](CO)[C@@H](O)[C@H]1O`, the pIC50 was < 4.00.
`Cc1ccc(-c2cn([C@@H]3O[C@H](CO)[C@@H](O)[C@H]3O)c3ncnc(N)c23)cc1C` gave a pIC50 of 5.95.
With `CC(C)c1cccc(-c2cn([C@@H]3O[C@H](CO)[C@@H](O)[C@H]3O)c3ncnc(N)c23)c1` the pIC50 was 5.17.
In the case of `CC(C)c1ccc(-c2cn([C@@H]3O[C@H](CO)[C@@H](O)[C@H]3O)c3ncnc(N)c23)cc1`, the pIC50 was 5.28.
Work on `CC(C)(C)c1ccc(-c2cn([C@@H]3O[C@H](CO)[C@@H](O)[C@H]3O)c3ncnc(N)c23)cc1` yielded a pIC50 of 5.34.
In the case of `Nc1ncnc2c1c(-c1ccc(C(F)(F)F)cc1)cn2[C@@H]1O[C@H](CO)[C@@H](O)[C@H]1O`, the pIC50 was 5.94.
`CC(C)Oc1ccc(-c2cn([C@@H]3O[C@H](CO)[C@@H](O)[C@H]3O)c3ncnc(N)c23)cc1` gave a pIC50 of 5.51.
With `Nc1ncnc2c1c(-c1ccc3c(c1)OCO3)cn2[C@@H]1O[C@H](CO)[C@@H](O)[C@H]1O` the pIC50 was 5.86.
With `COc1cc(-c2cn([C@@H]3O[C@H](CO)[C@@H](O)[C@H]3O)c3ncnc(N)c23)cc(OC)c1OC` the pIC50 was 5.15.
For `Nc1ncnc2c1c(-c1ccc3c4c(cccc14)CC3)cn2[C@@H]1O[C@H](CO)[C@@H](O)[C@H]1O`, the pIC50 was 5.76.
Work on `Nc1ncnc2c1c(-c1cc3ccccc3c3ccccc13)cn2[C@@H]1O[C@H](CO)[C@@H](O)[C@H]1O` yielded a pIC50 of 5.72.
Compound `Nc1ncnc2c1c(-c1cccc3c1oc1ccccc13)cn2[C@@H]1O[C@H](CO)[C@@H](O)[C@H]1O` has a pIC50 of 6.72.
For `Nc1ncnc2c1c(-c1cccc3c1Oc1ccccc1S3)cn2[C@@H]1O[C@H](CO)[C@@H](O)[C@H]1O`, the pIC50 was 5.34.
`Nc1ncnc2c1c(-c1cccc3c1Sc1ccccc1S3)cn2[C@@H]1O[C@H](CO)[C@@H](O)[C@H]1O` gave a pIC50 of 4.35.
In the case of `Nc1ncnc2c1c(/C=C/c1ccccc1)cn2[C@@H]1O[C@H](CO)[C@@H](O)[C@H]1O`, the pIC50 was 5.89.
For `Nc1ncnc2c1c(-c1ccc(-c3ccccc3)cc1)cn2[C@@H]1O[C@H](CO)[C@@H](O)[C@H]1O`, the pIC50 was 5.77.
`Nc1ncnc2c1c(-c1ccc(-c3ccc4ccccc4c3)cc1)cn2[C@@H]1O[C@H](CO)[C@@H](O)[C@H]1O` gave a pIC50 of 4.13.
`Nc1ncnc2c1c(-c1ccc(COc3cccc4ccccc34)cc1)cn2[C@@H]1O[C@H](CO)[C@@H](O)[C@H]1O` was tested, and the pIC50 was 5.19.
